Assay results from PubChem BioAssay (NCI).
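Step 1: Grow cells in 96-well plates. Step 2: Expose to compound for 48 hours at 5 concentrations. Step 3: Interpolate endpoints linearly; if unreached, use highest concentration. TGI: total growth inhibition.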

How the values were obtained:
Assay in all cases: NCI tumour cell line growth inhibition, 48 h
ACHN renal = system: ACHN renal
SNB-78 CNS = system: SNB-78 CNS
SNB-75 CNS = system: SNB-75 CNS
RXF-631 renal = system: RXF-631 renal
HCT-116 colon = system: HCT-116 colon
SF-295 CNS = system: SF-295 CNS
K-562 leukemia = system: K-562 leukemia
U251 CNS = system: U251 CNS
KM12 colon = system: KM12 colon
MOLT-4 leukemia = system: MOLT-4 leukemia
IGROV1 ovarian = system: IGROV1 ovarian
DMS 273 small cell lung = system: DMS 273 small cell lung
TK-10 renal = system: TK-10 renal
HT29 colon = system: HT29 colon
SW-620 colon = system: SW-620 colon
OVCAR-4 ovarian = system: OVCAR-4 ovarian
SK-MEL-5 melanoma = system: SK-MEL-5 melanoma
UO-31 renal = system: UO-31 renal
HCT-15 colon = system: HCT-15 colon
OVCAR-5 ovarian = system: OVCAR-5 ovarian
A498 renal = system: A498 renal
HOP-92 NSCLC = system: HOP-92 NSCLC
XF 498 CNS = system: XF 498 CNS
MALME-3M melanoma = system: MALME-3M melanoma
786-0 renal = system: 786-0 renal
HOP-62 NSCLC = system: HOP-62 NSCLC
SF-539 CNS = system: SF-539 CNS
NCI-H460 lung = system: NCI-H460 lung
RXF 393 renal = system: RXF 393 renal
CAKI-1 renal = system: CAKI-1 renal
M14 melanoma = system: M14 melanoma
DMS 114 small cell lung = system: DMS 114 small cell lung
SK-MEL-2 melanoma = system: SK-MEL-2 melanoma
LOX IMVI melanoma = system: LOX IMVI melanoma
UACC-257 melanoma = system: UACC-257 melanoma
CCRF-CEM leukemia = system: CCRF-CEM leukemia
M19-MEL melanoma = system: M19-MEL melanoma
UACC-62 melanoma = system: UACC-62 melanoma
LXFL 529 NSCLC = system: LXFL 529 NSCLC
SK-MEL-28 melanoma = system: SK-MEL-28 melanoma
COLO 205 colon = system: COLO 205 colon
SK-OV-3 ovarian = system: SK-OV-3 ovarian
SNB-19 CNS = system: SNB-19 CNS
HL-60(TB) leukemia = system: HL-60(TB) leukemia
EKVX NSCLC = system: EKVX NSCLC
RPMI-8226 leukemia = system: RPMI-8226 leukemia
SN12C renal = system: SN12C renal
NCI-H522 lung = system: NCI-H522 lung
OVCAR-8 ovarian = system: OVCAR-8 ovarian
NCI-H23 lung = system: NCI-H23 lung
SF-268 CNS = system: SF-268 CNS
OVCAR-3 ovarian = system: OVCAR-3 ovarian
A549 NSCLC = system: A549 NSCLC
NCI/ADR-RES ovarian = system: NCI/ADR-RES ovarian
HCC-2998 colon = system: HCC-2998 colon
SN12K1 renal = system: SN12K1 renal
NCI-H226 lung = system: NCI-H226 lung
P388/ADR leukemia = system: P388/ADR leukemia
P388 leukemia = system: P388 leukemia
KM20L2 colon = system: KM20L2 colon
DLD-1 colon = system: DLD-1 colon
HOP-18 NSCLC = system: HOP-18 NSCLC
MCF7 breast = system: MCF7 breast
SR leukemia = system: SR leukemia

`O=C(O)C#CCO` gave a TGI (ACHN renal) of over 100 µM, a TGI (SNB-78 CNS) of over 100 µM and a TGI (SNB-75 CNS) of over 100 µM. It also gave a TGI (RXF-631 renal) of over 100 µM, a TGI (HCT-116 colon) of over 100 µM and a TGI (SF-295 CNS) of over 100 µM. For the same compound, the TGI (K-562 leukemia) was over 100 µM, the TGI (U251 CNS) was over 100 µM and the TGI (KM12 colon) was over 100 µM. It also gave a TGI (MOLT-4 leukemia) of over 100 µM, a TGI (IGROV1 ovarian) of over 100 µM and a TGI (DMS 273 small cell lung) of over 100 µM. The TGI (TK-10 renal) was over 100 µM, the TGI (HT29 colon) was over 100 µM and the TGI (SW-620 colon) was over 100 µM. For the same compound, the TGI (OVCAR-4 ovarian) was over 100 µM, the TGI (SK-MEL-5 melanoma) was over 100 µM and the TGI (UO-31 renal) was over 100 µM. For the same compound, the TGI (HCT-15 colon) was over 100 µM, the TGI (OVCAR-5 ovarian) was over 100 µM and the TGI (A498 renal) was over 100 µM. The TGI (HOP-92 NSCLC) was over 100 µM, the TGI (XF 498 CNS) was over 100 µM and the TGI (MALME-3M melanoma) was over 100 µM. For the same compound, the TGI (786-0 renal) was over 100 µM, the TGI (HOP-62 NSCLC) was over 100 µM and the TGI (SF-539 CNS) was over 100 µM. It also gave a TGI (NCI-H460 lung) of over 100 µM, a TGI (RXF 393 renal) of over 100 µM and a TGI (CAKI-1 renal) of over 100 µM. It also gave a TGI (M14 melanoma) of over 100 µM, a TGI (DMS 114 small cell lung) of over 100 µM and a TGI (SK-MEL-2 melanoma) of over 100 µM. The TGI (LOX IMVI melanoma) was over 100 µM, the TGI (UACC-257 melanoma) was over 100 µM and the TGI (CCRF-CEM leukemia) was over 100 µM. For the same compound, the TGI (M19-MEL melanoma) was over 100 µM, the TGI (UACC-62 melanoma) was over 100 µM and the TGI (LXFL 529 NSCLC) was over 100 µM. It also gave a TGI (SK-MEL-28 melanoma) of over 100 µM, a TGI (COLO 205 colon) of over 100 µM and a TGI (SK-OV-3 ovarian) of over 100 µM. It also gave a TGI (SNB-19 CNS) of over 100 µM, a TGI (HL-60(TB) leukemia) of over 100 µM and a TGI (EKVX NSCLC) of over 100 µM. It also gave a TGI (RPMI-8226 leukemia) of over 100 µM, a TGI (SN12C renal) of over 100 µM and a TGI (NCI-H522 lung) of over 100 µM. It also gave a TGI (OVCAR-8 ovarian) of over 100 µM, a TGI (NCI-H23 lung) of over 100 µM and a TGI (SF-268 CNS) of over 100 µM. The TGI (OVCAR-3 ovarian) was over 100 µM and the TGI (A549 NSCLC) was over 100 µM.
For `Nc1ncnc2c1ncn2C1CCC(CO)O1` (stereo unspecified), the TGI (NCI/ADR-RES ovarian) was over 77.4 µM, the TGI (SNB-78 CNS) was over 100 µM and the TGI (SNB-75 CNS) was over 100 µM. For the same compound, the TGI (HCT-116 colon) was over 100 µM, the TGI (SF-295 CNS) was over 79.4 µM and the TGI (K-562 leukemia) was over 100 µM. The TGI (U251 CNS) was over 100 µM, the TGI (KM12 colon) was over 100 µM and the TGI (HCC-2998 colon) was over 77.4 µM. It also gave a TGI (MOLT-4 leukemia) of over 100 µM, a TGI (IGROV1 ovarian) of over 100 µM and a TGI (DMS 273 small cell lung) of over 100 µM. For the same compound, the TGI (HT29 colon) was over 67.2 µM, the TGI (SN12K1 renal) was over 69.5 µM and the TGI (SW-620 colon) was over 100 µM. It also gave a TGI (OVCAR-4 ovarian) of over 89.1 µM, a TGI (SK-MEL-5 melanoma) of over 100 µM and a TGI (UO-31 renal) of over 100 µM. The TGI (HCT-15 colon) was over 100 µM, the TGI (NCI-H226 lung) was over 74.7 µM and the TGI (OVCAR-5 ovarian) was over 100 µM. The TGI (A498 renal) was over 100 µM, the TGI (HOP-92 NSCLC) was over 86.4 µM and the TGI (XF 498 CNS) was over 100 µM. It also gave a TGI (MALME-3M melanoma) of over 100 µM, a TGI (HOP-62 NSCLC) of over 100 µM and a TGI (SF-539 CNS) of over 100 µM. It also gave a TGI (NCI-H460 lung) of over 100 µM, a TGI (P388/ADR leukemia) of over 77.4 µM and a TGI (RXF 393 renal) of over 100 µM. The TGI (CAKI-1 renal) was over 100 µM, the TGI (DMS 114 small cell lung) was over 74.1 µM and the TGI (P388 leukemia) was over 100 µM. It also gave a TGI (SK-MEL-2 melanoma) of over 100 µM, a TGI (LOX IMVI melanoma) of over 100 µM and a TGI (UACC-257 melanoma) of over 100 µM. The TGI (KM20L2 colon) was over 100 µM, the TGI (CCRF-CEM leukemia) was over 100 µM and the TGI (M19-MEL melanoma) was over 100 µM. The TGI (UACC-62 melanoma) was over 100 µM, the TGI (SK-MEL-28 melanoma) was over 68.2 µM and the TGI (COLO 205 colon) was over 100 µM. For the same compound, the TGI (DLD-1 colon) was over 100 µM, the TGI (SK-OV-3 ovarian) was over 100 µM and the TGI (HOP-18 NSCLC) was over 100 µM. For the same compound, the TGI (SNB-19 CNS) was over 100 µM, the TGI (HL-60(TB) leukemia) was over 100 µM and the TGI (EKVX NSCLC) was 100 µM. It also gave a TGI (RPMI-8226 leukemia) of over 100 µM, a TGI (SN12C renal) of over 100 µM and a TGI (NCI-H522 lung) of over 100 µM. For the same compound, the TGI (OVCAR-8 ovarian) was over 79.4 µM, the TGI (NCI-H23 lung) was over 71.5 µM and the TGI (SF-268 CNS) was over 87.7 µM. The TGI (OVCAR-3 ovarian) was over 100 µM, the TGI (MCF7 breast) was over 100 µM and the TGI (A549 NSCLC) was over 100 µM.
In the case of `C[C@H]1CC(=O)C2=CCCC3(SCCCS3)[C@@H]2[C@H]1CO`, the TGI (ACHN renal) is reported as over 100 µM, the TGI (SNB-75 CNS) is reported as over 100 µM and the TGI (RXF-631 renal) is reported as over 100 µM. The TGI (HCT-116 colon) was over 100 µM, the TGI (SF-295 CNS) was over 100 µM and the TGI (K-562 leukemia) was over 100 µM. It also gave a TGI (U251 CNS) of over 100 µM, a TGI (KM12 colon) of over 100 µM and a TGI (HCC-2998 colon) of over 100 µM. It also gave a TGI (MOLT-4 leukemia) of over 100 µM, a TGI (IGROV1 ovarian) of over 100 µM and a TGI (DMS 273 small cell lung) of over 100 µM. The TGI (TK-10 renal) was over 100 µM, the TGI (HT29 colon) was over 100 µM and the TGI (SW-620 colon) was over 100 µM. The TGI (OVCAR-4 ovarian) was over 100 µM, the TGI (SR leukemia) was over 100 µM and the TGI (SK-MEL-5 melanoma) was over 100 µM. For the same compound, the TGI (UO-31 renal) was over 100 µM, the TGI (NCI-H226 lung) was over 100 µM and the TGI (OVCAR-5 ovarian) was over 100 µM. It also gave a TGI (A498 renal) of over 100 µM, a TGI (HOP-92 NSCLC) of over 100 µM and a TGI (XF 498 CNS) of over 100 µM. For the same compound, the TGI (MALME-3M melanoma) was over 100 µM, the TGI (786-0 renal) was over 100 µM and the TGI (HOP-62 NSCLC) was over 100 µM. For the same compound, the TGI (SF-539 CNS) was over 100 µM, the TGI (NCI-H460 lung) was over 100 µM and the TGI (RXF 393 renal) was over 100 µM. For the same compound, the TGI (CAKI-1 renal) was over 100 µM, the TGI (M14 melanoma) was over 100 µM and the TGI (DMS 114 small cell lung) was over 100 µM. It also gave a TGI (SK-MEL-2 melanoma) of over 100 µM, a TGI (LOX IMVI melanoma) of over 100 µM and a TGI (UACC-257 melanoma) of over 100 µM. It also gave a TGI (CCRF-CEM leukemia) of over 100 µM, a TGI (M19-MEL melanoma) of over 100 µM and a TGI (UACC-62 melanoma) of over 100 µM. The TGI (LXFL 529 NSCLC) was over 100 µM, the TGI (SK-MEL-28 melanoma) was over 100 µM and the TGI (COLO 205 colon) was over 100 µM. It also gave a TGI (DLD-1 colon) of over 100 µM, a TGI (SK-OV-3 ovarian) of over 100 µM and a TGI (HOP-18 NSCLC) of over 100 µM. The TGI (SNB-19 CNS) was over 100 µM, the TGI (HL-60(TB) leukemia) was over 100 µM and the TGI (EKVX NSCLC) was over 100 µM. It also gave a TGI (RPMI-8226 leukemia) of over 100 µM, a TGI (SN12C renal) of over 100 µM and a TGI (NCI-H522 lung) of over 100 µM. For the same compound, the TGI (OVCAR-8 ovarian) was over 100 µM, the TGI (NCI-H23 lung) was over 100 µM and the TGI (SF-268 CNS) was over 100 µM. For the same compound, the TGI (OVCAR-3 ovarian) was over 100 µM and the TGI (A549 NSCLC) was over 100 µM.
